Laboratory results as given in article PMC10876879, “Sustained silencing peanut allergy by xanthopurpurin is associated with suppression of peripheral and bone marrow IgE-producing B cell” (Frontiers in Immunology, 2024).
Read-outs that look alike come from different tables or passages of the source.

Key:
IgE = system: IgE; design: method as in PMID 26185589; conditions: cited from earlier work
IgE production [1] = conditions: cited from earlier work
PN-allergic mice = conditions: oral berberine alone; cited from earlier work
[2] = design: method as in PMID 28208101; conditions: cited from earlier work
IgE production [3] = experiment: IgE production in vitro, other R. cordifolia compounds (data not shown); type: cell-based
IgE production [4] = experiment: IgE production in vivo, other R. cordifolia compounds (data not shown)

omalizumab: anti-IgE therapy, neutralizes free serum IgE
Anaphylactic reactions during oral immunotherapy (OIT) (IgE): greatly reduce anaphylactic reactions

COc1ccc2cc3[n+](cc2c1OC)CCc1cc2c(cc1-3)OCO2 [berberine]
IgE production in vitro (IgE production [1]): significantly inhibited the IgE production
PN-specific IgE levels (PN-allergic mice): did not reduce PN-specific IgE levels
Protection from anaphylaxis (PN-allergic mice): failed to protect PN-allergic mice from anaphylaxis
Bioavailability [2]: poor

O=C1c2ccccc2C(=O)c2c(O)c(O)cc(O)c21 [purpurin, 1,2,4-trihydroxyanthraquinone]
IgE production in vitro (IgE production [3]): inhibited IgE production only in vitro
IgE production in vivo (IgE production [4]): failed in vivo

1,3-dihydroxy-2-ethoxymethyl-9,10 anthraquinone [alizarin]
IgE production in vitro (IgE production [3]): inhibited IgE production only in vitro
IgE production in vivo (IgE production [4]): failed in vivo
